Measurements taken from patent US20050239656A1, “Pyridine compounds or salts thereof and herbicides containing the same” (priority 2002, published 2005).

How the values were obtained:
barnyardgrass [1] = test: Test Example 1: foliage treatment, upland pot test; format: in vivo, Echinochloa crus-galli L.; details: observed 18th to 23rd day, 0 = non-treated, 100 = complete kill
Method in brief: (§1)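 Visual growth-control score, 0% (like untreated) to 100% (complete kill), taken on days 18 to 23 after foliar spraying. Leaf stage at treatment: barnyardgrass 1.3–2.8, rice 1.2–2.6, wheat 1.3–2.4, soybean 0.1–0.4. Spray: wettable powder or EC in 500 L/ha water, 0.1% v/v spreader added.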

rice [2] = test: Test Example 2: soil surface treatment, upland pot test; format: in vivo, Oryza sativa L.; details: active ingredient 1000 g/ha, observed 20th to 28th day
Method in brief: (§2)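 A pre-emergence soil application: formulated compound at a predetermined active-ingredient dose, diluted in water to 1,500 L/ha, sprayed on upland soil a day after seeding in 1/170,000 ha pots; growth control rated visually, 0 (untreated level) to 100 (kill), at 20–28 days.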

japanese bulrush = test: Test Example 3: paddy pot test, application under submerged conditions; format: in vivo, Scirpus juncoides; details: submerged application at 0.5 leaf stage, visually observed 14 days after application, 0 = non-treated, 100 = complete kill
Method in brief: (§3)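 Visual growth-control rating (0 = untreated, 100 = complete kill) 14 days after treatment. The formulated compound, as a diluted wettable powder or emulsifiable concentrate, went into 3–4 cm flood water at a predetermined active-ingredient dose once the weeds reached 0.5 leaf stage (wapato: primary leaf stage).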

velvetleaf [3] = test: Test Example 1: foliage treatment, upland pot test; format: in vivo, Abutilon theophrasti MEDIC.; details: observed 18th to 23rd day, 0 = non-treated, 100 = complete kill
rice (var. Nihonbare) = test: Test Example 3: paddy pot test, transplanted rice; format: in vivo, Oryza sativa L.; details: applied 4th day after transplantation, visually observed 21st day after application, 0 = non-treated, 100 = complete kill
Method in brief: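 Rice (var. Nihonbare) at 2 leaf stage transplanted 3 cm deep into puddled paddy soil under 3–4 cm flooding; on day 4 after transplanting, diluted wettable powder or emulsifiable concentrate applied by pipette under submerged conditions at a set active-ingredient dose. Growth scored visually 21 days after application, 0 (untreated) to 100 (complete kill) %.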

green foxtail [4] = test: Test Example 2: soil surface treatment, upland pot test; format: in vivo, Setaria viridis L.; details: active ingredient 1000 g/ha, observed 20th to 28th day
Method in brief: as §2

redroot pigweed [5] = test: as above; format: in vivo, Amaranthus retroflexus L.; details: active ingredient 1000 g/ha, observed 20th to 28th day
Method in brief: as §2

japanese ribbon wapato = test: Test Example 3: paddy pot test, application under submerged conditions; format: in vivo, Sagittaria pygniaea; details: submerged application at primary leaf stage, visually observed 14 days after application, 0 = non-treated, 100 = complete kill
Method in brief: as §3

corn [6] = test: Test Example 2: soil surface treatment, upland pot test; format: in vivo, Zea mays L.; details: active ingredient 1000 g/ha, observed 20th to 28th day
Method in brief: as §2

prickly sida [7] = test: as above; format: in vivo, Sida spinosa L.; details: active ingredient 1000 g/ha, observed 20th to 28th day
Method in brief: as §2

prickly sida [8] = test: Test Example 1: foliage treatment, upland pot test; format: in vivo, Sida spinosa L.; details: observed 18th to 23rd day, 0 = non-treated, 100 = complete kill
crabgrass [9] = test: Test Example 2: soil surface treatment, upland pot test; format: in vivo, Digitaria sanguinalis L.; details: active ingredient 1000 g/ha, observed 20th to 28th day
Method in brief: as §2

soybean [10] = test: Test Example 1: foliage treatment, upland pot test; format: in vivo, Glycine max Merr.; details: crop, observed 18th to 23rd day, 0 = non-treated, 100 = complete kill
Method in brief: as §1

barnyardgrass [11] = test: Test Example 2: soil surface treatment, upland pot test; format: in vivo, Echinochloa crus-galli L.; details: active ingredient 1000 g/ha, observed 20th to 28th day, 0 = non-treated, 100 = complete kill
Method in brief: as §2

barnyardgrass [12] = test: Test Example 3: paddy pot test, application under submerged conditions; format: in vivo, Echinochloa crus-galli L.; details: submerged application at 0.5 leaf stage, visually observed 14 days after application, 0 = non-treated, 100 = complete kill
Method in brief: as §3

tall morningglory = test: Test Example 1: foliage treatment, upland pot test; format: in vivo, Ipomoea purpurea L.; details: observed 18th to 23rd day, 0 = non-treated, 100 = complete kill
Description: Upland field soil was put into a 1/170,000 ha pot, and seed of various plants were sown. Then, when the plants reached predetermined leaf stages ((1) barnyardgrass: 1.3 to 2.8 leaf stages, (2) crabgrass: 1.0 to 2.8 leaf stages, (3) green foxtail: 1.3 to 2.6 leaf stages, (4) redroot pigweed: 0.1 to 1.2 leaf stages, (5) prickly sida: 0.1 to 1.2 leaf stages, (6) velvetleaf: 0.1 to 1.2 leaf stages, (7) tall morningglory: 0.1 to 1.5 leaf stages, (8) rice: 1.2 to 2.6 leaf stages, (9) wheat: 1.3 to 2.4 leaf stages, (10) corn, 2.1 to 3.2 leaf stages, (11) soybean: 0.1 to 0.4 leaf stage), a wettable powder or emulsifiable concentrate having the compound of the present invention formulated in accordance with a usual formulation method, was weighed so that the active ingredient would be a predetermined amount, and diluted with water in an amount of 500 L/ha. To the diluted solution, 0.1% (v/v) of agricultural spreader was added. The herbicide thus adjusted was applied by a small size sprayer for foliage treatment. On the 18th to 23rd days after the application of the herbicide, the growth of the respective plants was visually observed, and the herbicidal effects were evaluated by the growth controlling degrees (%) ranging from 0 (equivalent to the non-treated plot) to 100 (complete kill), whereby the results shown in Table 3, were obtained.

corn [13] = test: Test Example 1: foliage treatment, upland pot test; format: in vivo, Zea mays L.; details: crop, observed 18th to 23rd day, 0 = non-treated, 100 = complete kill
Method in brief: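 In this upland pot foliage test, corn plants at 2.1 to 3.2 leaf stages were sprayed by a small size sprayer. The spray was a conventionally formulated wettable powder or emulsifiable concentrate weighed to a set active ingredient amount, diluted in water at 500 L/ha, plus 0.1% (v/v) agricultural spreader. Visual assessment on days 18 to 23 gave growth controlling degree (%), where 0 equals untreated and 100 means complete kill.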

wheat [14] = test: Test Example 2: soil surface treatment, upland pot test; format: in vivo, Triticum spp.; details: active ingredient 1000 g/ha, observed 20th to 28th day
Method in brief: as §2

redroot pigweed [15] = test: Test Example 1: foliage treatment, upland pot test; format: in vivo, Amaranthus retroflexus L.; details: observed 18th to 23rd day, 0 = non-treated, 100 = complete kill
crabgrass [16] = test: Test Example 1: foliage treatment, upland pot test; format: in vivo, Digitaria sanguinalis L.; details: observed 18th to 23rd day, 0 = non-treated, 100 = complete kill
green foxtail [17] = test: Test Example 1: foliage treatment, upland pot test; format: in vivo, Setaria viridis L.; details: observed 18th to 23rd day, 0 = non-treated, 100 = complete kill
velvetleaf [18] = test: Test Example 2: soil surface treatment, upland pot test; format: in vivo, Abutilon theophrasti MEDIC.; details: active ingredient 1000 g/ha, observed 20th to 28th day
Method in brief: as §2

wheat [19] = test: Test Example 1: foliage treatment, upland pot test; format: in vivo, Triticum spp.; details: crop, active ingredient 1000 g/ha, observed 18th to 23rd day, 0 = non-treated, 100 = complete kill
Method in brief: as §1

soybean [20] = test: Test Example 2: soil surface treatment, upland pot test; format: in vivo, Glycine max Merr.; details: active ingredient 1000 g/ha, observed 20th to 28th day
Method in brief: as §2

rice [21] = test: Test Example 1: foliage treatment, upland pot test; format: in vivo, Oryza sativa L.; details: crop, observed 18th to 23rd day, 0 = non-treated, 100 = complete kill
Method in brief: as §1

| SMILES | Growth controlling degree (%) Barnyardgrass (barnyardgrass [1]; active ingredient 1000 g/ha) [%] | Growth controlling degree (%) Rice (rice [2]) [%] | Growth controlling degree (%) Velvetleaf (velvetleaf [3]; active ingredient 1000 g/ha) [%] | Growth controlling degree (%) Green foxtail (green foxtail [4]) [%] | Growth controlling degree (%) Redroot pigweed (redroot pigweed [5]) [%] | Growth controlling degree (%) Corn (corn [6]) [%] | Growth controlling degree (%) Prickly sida (prickly sida [7]) [%] | Growth controlling degree (%) Prickly sida (prickly sida [8]; active ingredient 1000 g/ha) [%] | Growth controlling degree (%) Crabgrass (crabgrass [9]) [%] | Growth controlling degree (%) Soybean (soybean [10]; active ingredient 1000 g/ha) [%] | Growth controlling degree (%) Barnyardgrass (barnyardgrass [11]) [%] | Growth controlling degree (%) Tall morningglory (tall morningglory; active ingredient 1000 g/ha) [%] | Growth controlling degree (%) Corn (corn [13]; active ingredient 1000 g/ha) [%] | Growth controlling degree (%) wheat (wheat [14]) [%] | Growth controlling degree (%) Redroot pigweed (redroot pigweed [15]; active ingredient 1000 g/ha) [%] | Growth controlling degree (%) Crabgrass (crabgrass [16]; active ingredient 1000 g/ha) [%] | Growth controlling degree (%) Green foxtail (green foxtail [17]; active ingredient 1000 g/ha) [%] | Growth controlling degree (%) Velvetleaf (velvetleaf [18]) [%] | Growth controlling degree (%) wheat (wheat [19]) [%] | Growth controlling degree (%) Soyabean (soybean [20]) [%] | other results |
| --- | --- | --- | --- | --- | --- | --- | --- | --- | --- | --- | --- | --- | --- | --- | --- | --- | --- | --- | --- | --- | --- |
| CC(C)C(c1cnccc1C(F)(F)F)N(C)C(=O)Cc1ccc(I)cc1 (stereo not shown) [I-2] | 90 | 0 | 90 | 80 | 70 | 0 | 70 | 90 | 90 | 90 | 80 | 90 | 20 | 0 | 70 | 90 | 70 | 0 | 20 | 0 | Growth controlling degree (%) Japanese bulrush (japanese bulrush; active ingredient 250 g/ha): 90%; Growth controlling degree (%) Rice (rice (var. Nihonbare); active ingredient 250 g/ha): 20%; Growth controlling degree (%) Japanese ribbon wapato (japanese ribbon wapato; active ingredient 250 g/ha): 50%; Growth controlling degree (%) Barnyardgrass (barnyardgrass [12]; active ingredient 250 g/ha): 100%; Growth controlling degree (%) Rice (rice [21]; active ingredient 1000 g/ha): 20% |
| CC(C)C(c1cnccc1C(F)(F)F)N(C)C(=O)Cc1ccc(Br)cc1 (stereo not shown) [I-10] | 90 | 30 | 95 | 100 | 60 | 10 | 60 | 90 | 100 | 90 | 100 | 95 | 60 | 20 | 90 | 95 | 90 | 60 | 30 | 30 | Growth controlling degree (%) Japanese bulrush (japanese bulrush; active ingredient 500 g/ha): 98%; Growth controlling degree (%) Rice (rice (var. Nihonbare); active ingredient 500 g/ha): 10%; Growth controlling degree (%) Japanese ribbon wapato (japanese ribbon wapato; active ingredient 500 g/ha): 10%; Growth controlling degree (%) Barnyardgrass (barnyardgrass [12]; active ingredient 500 g/ha): 100%; Growth controlling degree (%) Rice (rice [21]; active ingredient 1000 g/ha): 30% |
| CC(C)C(c1cnccc1C(F)(F)F)N(C)C(=O)Cc1ccc(Cl)cc1Cl (stereo not shown) [I-14] | – | 10 | – | 100 | 85 | 20 | 60 | – | 100 | – | 100 | – | – | 30 | – | – | – | 60 | – | 0 | Growth controlling degree (%) Barnyardgrass (barnyardgrass [1]; active ingredient 500 g/ha): 50%; Growth controlling degree (%) Japanese bulrush (japanese bulrush; active ingredient 500 g/ha): 98%; Growth controlling degree (%) Velvetleaf (velvetleaf [3]; active ingredient 500 g/ha): 70%; Growth controlling degree (%) Rice (rice (var. Nihonbare); active ingredient 500 g/ha): 10%; Growth controlling degree (%) Japanese ribbon wapato (japanese ribbon wapato; active ingredient 500 g/ha): 30%; Growth controlling degree (%) Prickly sida (prickly sida [8]; active ingredient 500 g/ha): 80%; Growth controlling degree (%) Soybean (soybean [10]; active ingredient 500 g/ha): 20%; Growth controlling degree (%) Barnyardgrass (barnyardgrass [12]; active ingredient 500 g/ha): 100%; Growth controlling degree (%) Tall morningglory (tall morningglory; active ingredient 500 g/ha): 95%; Growth controlling degree (%) Corn (corn [13]; active ingredient 500 g/ha): 40%; Growth controlling degree (%) Redroot pigweed (redroot pigweed [15]; active ingredient 500 g/ha): 80%; Growth controlling degree (%) Crabgrass (crabgrass [16]; active ingredient 500 g/ha): 70%; Growth controlling degree (%) Green foxtail (green foxtail [17]; active ingredient 500 g/ha): 60%; Growth controlling degree (%) Rice (rice [21]; active ingredient 500 g/ha): 20% |
| CC(C)COC(=O)N(C)C(c1cnccc1C(F)(F)F)c1cccc2ccccc12 (stereo not shown) [I-52] | 50 | – | 95 | – | – | – | – | 70 | – | 0 | – | 95 | 60 | – | 60 | 80 | 20 | – | 10 | – | Growth controlling degree (%) Rice (rice [21]; active ingredient 1000 g/ha): 10% |
